Laboratory results: PubChem BioAssay (NCI)
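Five concentrations, 48 hours, 96-well plates. GI50 marks 50% less growth. Definition used: TGI = concentration required for complete inhibition of growth.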

Columns and labels:
Experiment in all cases: inhibition of tumour cell growth, NCI panel, 48 h
[1] = test system: OVCAR-4 ovarian
[2] = test system: IGROV1 ovarian
[3] = test system: CAKI-1 renal
[4] = test system: HOP-92 NSCLC
[5] = test system: PC-3 prostate
[6] = test system: SNB-75 CNS
[7] = test system: UACC-257 melanoma
[8] = test system: NCI/ADR-RES ovarian
[9] = test system: DU-145 prostate
[10] = test system: NCI-H522 lung

Row | Structure (SMILES) | GI50 [1] [nM] | TGI [1] [µM] | GI50 [2] [µM] | TGI [2] [µM] | GI50 [3] [nM] | TGI [3] [µM] | GI50 [4] [nM] | TGI [4] [µM] | GI50 [5] [nM] | TGI [5] [µM] | GI50 [6] [µM] | TGI [6] [µM] | GI50 [7] [µM] | TGI [7] [µM] | GI50 [8] [nM] | TGI [8] [µM] | GI50 [9] [µM] | TGI [9] [µM] | GI50 [10] [nM] | TGI [10] [µM]
1 | O=C(/C=C/c1ccncc1)c1cc(Cl)ccc1O | 27300 | 88.1 | 15 | 38.5 | 14300 | 38.5 | 4650 | 19.6 | 14800 | 33.6 | 17.5 | 32.2 | 22.2 | 49.7 | 22700 | 66.4 | 17.4 | 31.5 | 14100 | 29.6
2 | CC(C)C(C)/C=C\C(C)C1CCC2C3=CC=C4CC(O)CCC4(C)C3CCC21C (stereo not given) | – | > 100 | – | > 54.3 | – | > 60.4 | – | 70.2 | – | > 100 | – | > 73.1 | – | > 100 | – | > 70.7 | – | > 100 | – | > 100
3 | N#CC(C#N)=CNC(N)=S | – | > 100 | – | > 100 | – | > 100 | – | > 100 | – | > 100 | – | > 100 | – | > 100 | – | > 100 | – | > 100 | – | > 100
4 | COC(=O)C1=C(C)NC(C)=C(C(=O)OCCCN2CCC(c3ccccc3)(c3ccccc3)CC2)C1c1cccc([N+](=O)[O-])c1 (stereo not given) | – | 2.98 | – | 3.21 | – | 11.8 | – | 4.26 | – | 3.05 | – | 9.84 | – | 3.1 | – | 3.42 | – | 3.31 | – | 4.72
5 | C[C@@H]1CCC2[C@@H](C)[C@@H](OCC(CO[C@H]3OC4O[C@@]5(C)CC[C@H]6[C@H](C)CCC([C@H]3C)[C@@]46OO5)OC(=O)CCC(=O)O)OC3O[C@@]4(C)CC[C@@H]1[C@]32OO4 (stereo not given in full) | 58.3 | 26.3 | 12.6 | > 69 | 22 | 0.477 | 97 | 3.26 | < 10 | 14.7 | 16.1 | 36.6 | 0.708 | 37.3 | 245 | 6.23 | 6.4 | 27.3 | 62.8 | 15.4
6 | OC(c1nc2ccccc2[nH]1)C(O)C(O)C(O)c1nc2ccccc2[nH]1 (stereo not given) | – | > 100 | – | > 100 | – | > 100 | – | > 100 | – | > 100 | – | > 100 | – | > 100 | – | > 100 | – | > 100 | – | > 100
7 | COc1ccc(/C=C(/C#N)n2nnc3cccc(F)c32)cc1 | 2000 | > 100 | 0.759 | 16.3 | 733 | 11.8 | 546 | 3.23 | 1630 | > 100 | 0.206 | 0.638 | 77.8 | > 100 | 371 | 3.37 | 1.36 | 4.67 | 301 | > 100
8 | Nc1ncnc2n[nH]c(Nc3ccc(F)cc3)c12 | 19000 | 75.2 | 4.73 | 32.1 | 4050 | > 100 | 12000 | 87.4 | 20800 | > 100 | 31.7 | > 100 | 67.7 | > 100 | 65300 | > 100 | 9.33 | 42.1 | 29800 | > 100
9 | C=C1NC(=O)C(C(C)CC)NC(=O)C2CSCC(NC(=O)CCC(=O)O)C(=O)NC(Cc3ccccc3)C(=O)NC(C)C(=O)NC(CC(C)CC)C(=O)NC(C(=O)NC(Cc3ccccc3)C(=O)N3CCCC3C(=O)N2)C(C)OC(=O)C(CO)NC(=O)C(C(O)COC)N(C)C(=O)C(C(C)C)NC(=O)C(CC(C)CC)NC1=O (stereo not given) | 339 | > 6 | 0.112 | > 6 | 24.6 | > 6 | 66.8 | > 4.93 | 26.5 | > 6 | 0.0048 | > 6 | > 6 | > 6 | 30.4 | > 6 | 0.0238 | > 6 | 4.11 | 0.359
